Measurements taken from patent US11576911B2, “Composition and method for treatment of depression and psychosis in humans” (Glytech LLC, priority 2012, dated 2023).

Columns and labels:
Male C57Bl/6J mice [1] = test: Elevated plus maze (EPM), DOI 2 mg/kg in all conditions; assay type: in vivo; settings: for Mean distance travelled in the open arm of the EPM: Table 6, DOI 2 mg/kg added; for Distance travelled in the open arm relative to the vehicle, in words: Table 6 doses, DOI 2 mg/kg added in all conditions; for Reversal of 5-HT2A antagonist induced reductions in open arm measures of the EPM, in words: NMDAR antagonists, summary of Example 1; for DTO Mean / PCT Mean: Table 2; for Effect on distance travelled in open arm / % time in open arm of EPM, in words: agent alone vs control, doses of Tables 1 and 2; for Effect on open arm behavior in the EPM, in words: non-competitive NMDAR antagonist with MDL100907 .3 mg/kg (Table 1 lines 8,9); for Total distance travelled in the EPM, in words: with MDL100907 .3 mg/kg (Table 1 lines 8,9); for Distance Traveled Open (DTO) Mean / Percent open (PCT) Mean: Table 1
Male BalbC/J mice = test: Rodent forced swim test (FST), immobility time; assay type: in vivo; design: key to Mean immobility time in the rodent forced swim test (FST): seconds of immobility over the 6-min test; settings: for Mean immobility time in the rodent forced swim test (FST): Table 5; for Effect on immobility in the FST, in words: at indicated doses of Table 5; for immobility time in the rodent forced swim test (FST), Mean: Table 3
Description: Male BalbC/J mice (8 weeks old) from Jackson Laboratories (Bar Harbor, Me.) were used. Upon receipt, mice were assigned unique identification numbers (tail marked) and were group housed in OPTImice cages. All animals were acclimated to the colony room for 1 week prior to testing. During the period of acclimation, animals were examined on a regular basis, handled, and weighed to assure adequate health and suitability. Animals were maintained on a 12/12 light/dark cycle. The room temperature was maintained between 20 and 23° C. with a relative humidity maintained between 30% and 70%. Chow and water were provided ad libitum for the duration of the study. All testing was performed during the animal's light cycle phase.
Mice were acclimated to the test room at least 1 hour prior to commencing the test. The forced swimming test consisted of one 6-minute session of forced swimming in individual opaque cylinders (15 cm tall×10 cm wide, 1000 ml beakers) containing fresh tap water at a temperature of 23±2° C. and a depth of 12 cm (approximately 800 ml) for each test animal. The time the animal spent immobile was recorded over the 6 min trial. Every 1 min the cumulative immobility time was recorded from the start of the session and noted on the study data record sheet. Immobility was defined as the postural position of floating in the water. The animals were generally observed with the back slightly hunched and the head above water with no movements or with small stabilizing movements of the limbs. After the swim test, each animal was placed in a pre-heated cage with a heating pad and allowed to dry.
The main variable used to represent immobility in this test was the total time immobile during the 6-min test period. Statistics were performed by analysis of variance (ANOVA) with Dunnett post-hoc testing vs. the control condition or by t-test as appropriate.
Sertraline, a known antidepressant, is used as a positive control.
For this study, further NMDAR antagonist compounds were tested for their ability to reduce immobility time in the rodent FST test, indicative of potential anti-depressant effects, and further 5-HT2AR antagonists were tested for their ability to produce reductions of time spent in the open arms of the EPM, indicative to potential liability to induce anxiety, akathisia and suicidality in humans

Male C57Bl/6J mice [2] = settings: selective 5-HT2A antagonist alone; previously demonstrated (U.S. Pat. No. 9,846,453); cited from earlier work

## CCN(CC)C(=O)[C@@]1(c2ccccc2)C[C@H]1CN [Levomilnacipran]
Male C57Bl/6J mice [1]; 40 mg/kg
  Mean distance travelled in the open arm of the EPM: 237.90
Male C57Bl/6J mice [1]
  Distance travelled in the open arm relative to the vehicle, in words: no significant effects

## Cc1ccc(Sc2ccccc2N2CCNCC2)c(C)c1 [Vortioxetine]
Male C57Bl/6J mice [1]; 10 mg/kg
  Mean distance travelled in the open arm of the EPM: 237.90
Male C57Bl/6J mice [1]
  Distance travelled in the open arm relative to the vehicle, in words: no significant effects

## O=C(/C=C/c1c(C(=O)O)[nH]c2cc(Cl)cc(Cl)c12)Nc1ccccc1 [Gavestinel]
Male BalbC/J mice; 0.1 mg/kg
  Mean immobility time in the rodent forced swim test (FST): 136.10
Male BalbC/J mice; 0.3 mg/kg
  Mean immobility time in the rodent forced swim test (FST): 116.30
Male BalbC/J mice; 1.0 mg/kg
  Mean immobility time in the rodent forced swim test (FST): 109.60
Male BalbC/J mice; 3.0 mg/kg
  Mean immobility time in the rodent forced swim test (FST): 122.70
Male BalbC/J mice; 10 mg/kg
  Mean immobility time in the rodent forced swim test (FST): 111.40
Male BalbC/J mice; 30 mg/kg
  Mean immobility time in the rodent forced swim test (FST): 131.90
Male BalbC/J mice
  Effect on immobility in the FST, in words: numerically reduce immobility

## COc1ccc(C(CN(C)C)C2(O)CCCCC2)cc1 (centres unmarked) [Venflaxine]
Male C57Bl/6J mice [1]; 40 mg/kg
  Mean distance travelled in the open arm of the EPM: 224.60

## O=C(O)[C@H]1CN(C/C=C/P(=O)(O)O)CCN1 [D-CPPene, D-(E)-4-(3-phosphonoprop-2-enyl)piperazine-2-carboxylic acid]
Male C57Bl/6J mice [1]
  Reversal of 5-HT2A antagonist induced reductions in open arm measures of the EPM, in words: Pro-therapeutic effects
Male BalbC/J mice; 0.03 mg/kg
  Mean immobility time in the rodent forced swim test (FST): 124.20
Male BalbC/J mice; 0.1 mg/kg
  Mean immobility time in the rodent forced swim test (FST): 153.40
Male BalbC/J mice; 0.3 mg/kg
  Mean immobility time in the rodent forced swim test (FST): 129.10
Male BalbC/J mice; 1.0 mg/kg
  Mean immobility time in the rodent forced swim test (FST): 156.80
Male BalbC/J mice; 3.0 mg/kg
  Mean immobility time in the rodent forced swim test (FST): 124.60
Male BalbC/J mice; 10 mg/kg
  Mean immobility time in the rodent forced swim test (FST): 141.20

## CN(C)C(=O)N[C@H]1CC[C@H](CCN2CCN(c3cccc(Cl)c3Cl)CC2)CC1 [Cariprazine]
Male C57Bl/6J mice [1]; 0.03 mg/kg
  Mean distance travelled in the open arm of the EPM: 186.00
Male C57Bl/6J mice [1]; 0.1 mg/kg
  Mean distance travelled in the open arm of the EPM: 174.30
Male C57Bl/6J mice [1]; 1 mg/kg
  Mean distance travelled in the open arm of the EPM: 69.70

## O=c1ccc2ccc(OCCCCN3CCN(c4cccc5sccc45)CC3)cc2[nH]1 [Brexpiprazole]
Male C57Bl/6J mice [1]; .3 mg/kg alone
  DTO Mean: 131.6
  PCT Mean: 28.7%
Male C57Bl/6J mice [1]; 0.1 mg/kg
  Mean distance travelled in the open arm of the EPM: 160.10
Male C57Bl/6J mice [1]; 0.3 mg/kg
  Mean distance travelled in the open arm of the EPM: 204.70
Male C57Bl/6J mice [1]; 1 mg/kg
  Mean distance travelled in the open arm of the EPM: 93.70
Male BalbC/J mice; .3 mpk alone
  immobility time in the rodent forced swim test (FST), Mean: 239 s
Male BalbC/J mice; agent alone (Table 3)
  Effect on immobility in the forced swim test, in words: significantly increased immobility

## CNCCC(Oc1ccc(C(F)(F)F)cc1)c1ccccc1 (centres unmarked) [Fluoxetine]
Male C57Bl/6J mice [1]; 10 mg/kg
  Mean distance travelled in the open arm of the EPM: 216.70
Male C57Bl/6J mice [1]
  Distance travelled in the open arm relative to the vehicle, in words: no significant effects

## O=C1CCc2ccc(OCCCCN3CCN(c4cccc(Cl)c4Cl)CC3)cc2N1 [Aripiprazole]
Male C57Bl/6J mice [1]; 1 mg/kg alone
  DTO Mean: 113.9
  PCT Mean: 34.9%
Male C57Bl/6J mice [1]
  Effect on distance travelled in open arm / % time in open arm of EPM, in words: significantly decreased distance travelled in the open arm, but not % of time in the open arm

## O=C(O)[C@H]1C[C@@H](CP(=O)(O)O)CCN1 (relative stereo) [CGS-19755, cis-4-(phosphonomethyl)-2-piperidinecarboxylic acid]
Male C57Bl/6J mice [1]
  Reversal of 5-HT2A antagonist induced reductions in open arm measures of the EPM, in words: Pro-therapeutic effects
Male BalbC/J mice; 0.03 mg/kg
  Mean immobility time in the rodent forced swim test (FST): 125.60
Male BalbC/J mice; 0.1 mg/kg
  Mean immobility time in the rodent forced swim test (FST): 144.30
Male BalbC/J mice; 0.3 mg/kg
  Mean immobility time in the rodent forced swim test (FST): 120.00
Male BalbC/J mice; 1.0 mg/kg
  Mean immobility time in the rodent forced swim test (FST): 137.20
Male BalbC/J mice; 3.0 mg/kg
  Mean immobility time in the rodent forced swim test (FST): 154.90
Male BalbC/J mice; 10 mg/kg
  Mean immobility time in the rodent forced swim test (FST): 114.70
Male BalbC/J mice
  Effect on immobility in the FST, in words: numerically reduce immobility

## N#Cc1c[nH]c2c(C(=O)N3CCN(CCc4ccc(F)cc4)CC3)cccc12 [EMD281014]
Male C57Bl/6J mice [1]; 1 mg/kg
  Mean distance travelled in the open arm of the EPM: 111.00
Male C57Bl/6J mice [1]; 3 mg/kg
  Mean distance travelled in the open arm of the EPM: 42.70
Male C57Bl/6J mice [1]; 10 mg/kg
  Mean distance travelled in the open arm of the EPM: 44.80

## CN(C)CCO/N=C(/C=C/c1ccc(O)cc1)c1ccccc1F [SR46349B]
Male C57Bl/6J mice [1]; 0.3 mg/kg
  Mean distance travelled in the open arm of the EPM: 127.10
Male C57Bl/6J mice [1]; 1 mg/kg
  Mean distance travelled in the open arm of the EPM: 98.00
Male C57Bl/6J mice [1]; 10 mg/kg
  Mean distance travelled in the open arm of the EPM: 105.90

## CN[C@H]1CC[C@@H](c2ccc(Cl)c(Cl)c2)c2ccccc21 [Sertraline]
Male BalbC/J mice; 20 mg/kg
  Mean immobility time in the rodent forced swim test (FST): 85.50

## CC(C)COc1ccc(CNC(=O)N(Cc2ccc(F)cc2)C2CCN(C)CC2)cc1 [Pimavanserin]
Male C57Bl/6J mice [1]; 0.3 mg/kg
  Mean distance travelled in the open arm of the EPM: 150.20
Male C57Bl/6J mice [1]; 1 mg/kg
  Mean distance travelled in the open arm of the EPM: 204.10
Male C57Bl/6J mice [1]; 10 mg/kg
  Mean distance travelled in the open arm of the EPM: 66.50
Male C57Bl/6J mice [1]
  Distance travelled in the open arm relative to the vehicle, in words: significantly reduced

## O=C1[C@@H]2[C@H]3CC[C@H](C3)[C@@H]2C(=O)N1C[C@@H]1CCCC[C@H]1CN1CCN(c2nsc3ccccc23)CC1 [Lurasidone]
Male C57Bl/6J mice [1]; .1 mg/kg alone
  DTO Mean: 172.9
  PCT Mean: 32.5%
Male C57Bl/6J mice [1]; .2 mg/kg alone
  DTO Mean: 120.8
  PCT Mean: 22.9%
Male C57Bl/6J mice [1]; .3 mg/kg alone
  DTO Mean: 134.2
  PCT Mean: 26.6%
Male BalbC/J mice; 1 mpk alone
  immobility time in the rodent forced swim test (FST), Mean: 157 s
Male BalbC/J mice; 3 mpk alone
  immobility time in the rodent forced swim test (FST), Mean: 169 s
Male BalbC/J mice; .2 mpk alone
  immobility time in the rodent forced swim test (FST), Mean: 146 s

## c1ccc(C2(N3CCCCC3)CCCCC2)cc1 [PCP]
Male C57Bl/6J mice [1]
  Reversal of 5-HT2A antagonist induced reductions in open arm measures of the EPM, in words: worsened performance relative to DCS
  Effect on open arm behavior in the EPM, in words: did not significantly affect open arm behavior
  Total distance travelled in the EPM, in words: reduced total distance travelled

## CN(C)CCCN1c2ccccc2CCc2ccccc21 [Imipramine]
Male C57Bl/6J mice [1]; 10 mg/kg
  Mean distance travelled in the open arm of the EPM: 235.00
Male C57Bl/6J mice [1]
  Distance travelled in the open arm relative to the vehicle, in words: no significant effects

## Cc1nc2n(c(=O)c1CCN1CCC(c3noc4cc(F)ccc34)CC1)CCCC2 [Risperidone]
Male C57Bl/6J mice [1]; 1 mg/kg alone
  DTO Mean: 0.0
  PCT Mean: 0.0%
Male C57Bl/6J mice [1]; 1 mg/kg
  Mean distance travelled in the open arm of the EPM: 5.30

## O=C(c1ccc(F)cc1)C1CCN(CCn2c(=O)[nH]c3ccccc3c2=O)CC1 [ketanserin]
Male C57Bl/6J mice [2]
  Distance travelled in the open arm and % time in the open arm, in words: significantly reduced

## COc1cccc([C@H](O)C2CCN(CCc3ccc(F)cc3)CC2)c1OC [MDL100907]
Male C57Bl/6J mice [2]
  Distance travelled in the open arm and % time in the open arm, in words: significantly reduced
Male C57Bl/6J mice [1]; .3 mg/kg alone
  Distance Traveled Open (DTO) Mean: 114.3
  Percent open (PCT) Mean: 19.2%
Male C57Bl/6J mice [1]
  Effect on distance travelled in open arm / % time in open arm of EPM, in words: significantly reduces both distance travelled in the open arm and % open arm activity

## OCCOCCN1CCN(C2=Nc3ccccc3Sc3ccccc32)CC1 [Quetiapine]
Male C57Bl/6J mice [1]; 30 mg/kg alone
  DTO Mean: 42.8
  PCT Mean: 9.0%

## CNC1(c2ccccc2Cl)CCCCC1=O (racemic) [ketamine, (R,S)-2-(2-Chlorphenyl)-2-(methylamino)cyclohexan-1-on]
Male C57Bl/6J mice [1]; 10 mg/kg ip alone
  Distance Traveled Open (DTO) Mean: 194.5
  Percent open (PCT) Mean: 40.3%
Male C57Bl/6J mice [1]
  Effect on distance travelled in open arm / % time in open arm of EPM, in words: does not significantly alter either distance traveled in the open arm or % time in the open arm
  Effect on open arm behavior in the EPM, in words: did not significantly affect open arm behavior
  Total distance travelled in the EPM, in words: reduced total distance travelled

## C[C@@H]([C@@H](O)c1ccc(O)cc1)N1CCC(O)(c2ccccc2)CC1 [CP101606]
Male C57Bl/6J mice [1]
  Reversal of 5-HT2A antagonist induced reductions in open arm measures of the EPM, in words: Pro-therapeutic effects
